PMC2226154 (The Journal of General Physiology, 1974)
pKi: −log10 of the molar value. Read-outs that look alike come from different tables or passages of the source. Each block holds one molecule with its values, some of them ahead of it.

How the values were obtained:
[1] = molecular target: T1, neutral amino acid transport system in rabbit ileum (Oryctolagus cuniculus, UniProt B4XTG9); conditions: Hajjar and Curran, phenylalanine analogs; cited from earlier work
[2] = molecular target: T1, neutral amino acid transport system in rabbit ileum; assay: Inhibition of L-methionine-14C influx across the brush border membrane; conditions: for fold decrease in apparent affinity: compared to the corresponding parent compound
[3] = molecular target: T1, neutral amino acid transport system in rabbit ileum; conditions: direct measurement of influx; cited from earlier work
[4] = measured by Church and Hansch, unpublished; cited from earlier work

SMILES: CN[C@@H](Cc1ccccc1)C(=O)O [N-methyl phenylalanine]
Apparent affinity [1]: very low apparent affinity

fold higher affinity than glutamic acid [2]: 10 fold
SMILES: CCOC(=O)CCC(N)C(=O)O (stereo not drawn) [Glutamic acid 7-ethyl ester]

SMILES: CCSCC[C@H](N)C(=O)O [Ethionine]
observed ratio of KI ([2]; 0.5 mM methionine (reference)): 1.00
observed ratio of KI ([2]; 2 mM methionine relative to 0.5 mM): 0.98
observed ratio of KI ([2]; 3 mM methionine relative to 0.5 mM): 1.08

SMILES: NCC(=O)O [Glycine]
Apparent affinity [3]: 8 M⁻¹

SMILES: O=C(O)C(O)Cc1ccccc1 (stereo not drawn) [phenyllactic acid]
Apparent affinity [1]: 0.8 M⁻¹

fold decrease in apparent affinity [2]: approximately 50 fold
SMILES: CSCC[C@@H](N)C(=O)O [D-methionine]

affinity lower than that of norvaline [2]: approximately 30%
SMILES: C=CC[C@H](N)C(=O)O [Allylglycine]

SMILES: CC(C)C[C@H](N)C(=O)O [Leucine]
Apparent affinity [3]: 32 M⁻¹

fold decrease in apparent affinity [2]: ~10 fold
SMILES: CC(C)(C)C(N)C(=O)O (stereo not drawn) [tertiary leucine]

SMILES: O=C(O)CCc1ccccc1 [phenylpropionic acid]
Apparent affinity [1]: 1.2 M⁻¹

fold higher affinity than glutamic acid [2]: 10 fold
SMILES: COC(=O)CC[C@H](N)C(=O)O [Glutamic acid Y-methyl ester]

SMILES: N[C@@H](Cc1ccccc1)C(=O)O [Phenylalanine]
Apparent affinity [1]: 56 M⁻¹

SMILES: C[C@H](N)C(=O)O [Alanine]
Apparent affinity [3]: 14 M⁻¹
log P (octanol/water partition coefficient) [4]: -2.94

pKi ([2]; read-out: KI observed, Table V, [Na] 35): 2.30
SMILES: CCC(O)C(N)C(=O)O (stereo not drawn) [a-Amino-b-hydroxy valeric acid, a-amino-b-hydroxyvaleric acid]

effect on methionine influx ([2]; 30 mM, separate control experiments): minimal effect
SMILES: O[C@@H](CS)[C@@H](O)CS (racemic) [Dithiothreitol]
